# Measurements from patent US7960556B2, “Thiadiazole derivatives for the treatment of neuro-degenerative diseases” (NV reMYND, priority 2006, dated 2011).
# Test system: α-synuclein cytotoxicity in M17-SYNwt cells
# Test: α-synuclein cytotoxicity assay: LDH leakage from paraquat-treated M17-SYNwt neuroblastoma cells;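 further: paraquat at 32 mM co-added with compound, 40 h exposure, LDH activity released into the culture medium measured, references are DMSO-only cells and paraquat plus DMSO cells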
# Details: Homo sapiens, Neuroblastoma cell; for Emax: read-out: % Inhib.
Structure (SMILES),EC50,Emax
"O=C(Nc1ccccc1)N1CCN(c2nc(Cc3ccc(F)cc3)ns2)CC1 [compound 13, N-phenyl-4-[3-(4-fluorobenzyl)-1,2,4-thiadiazol-5-yl]piperazine-1-carboxamide]",1.23 µM,71%
"Cc1ccc(Cc2nsc(N3CCN(S(=O)(=O)c4ccc(C)cc4)C(C)C3)n2)cc1 (stereo not drawn) [compound 50, 1-[4-methylphenylsulfonyl]-4-[3-(4-methylbenzyl)-1,2,4-thiadiazol-5-yl]-2-methylpiperazine]",–,105%
"Cc1ccc(Cc2nsc(N3CCN(C(=O)c4ccc5c(c4)OCO5)C(C)C3)n2)cc1 (stereo not drawn) [compound 161, 1-(1,3-benzodioxol-5-ylcarbonyl)-4-[3-(4-methylbenzyl)-1,2,4-thiadiazol-5-yl]-2-methyl + B176piperazine]",3.36 µM,101%
"CC1CN(c2nc(Cc3ccc(Cl)cc3)ns2)CCN1C(=O)c1cccc(F)c1 (stereo not drawn) [compound 125, 1-(3-fluorobenzoyl)-4-[3-(4-chlorobenzyl)-1,2,4-thiadiazol-5-yl]-2-methylpiperazine]",0.16 µM,68%
"CC1CN(c2nc(Cc3ccc(F)cc3)ns2)CCN1C(=O)c1cccc(F)c1 (stereo not drawn) [compound 179, 1-(3-fluorobenzoyl)-4-[3-(4-fluorobenzyl)-1,2,4-thiadiazol-5-yl]-2-methylpiperazine]",–,68%
"Cc1ccc(Cc2nsc(N3CCN(S(=O)(=O)c4c(C)cc(C)cc4C)C(C)C3)n2)cc1 (stereo not drawn) [compound 45, 1-[2,4,6-trimethylphenylsulfonyl]-4-[3-(4-methylbenzyl)-1,2,4-thiadiazol-5-yl]-2-methylpiperazine]",1.2 µM,56%
"Cc1ccc(Cc2nsc(N3CCN(C(=O)Cc4ccc(F)cc4)C(C)C3)n2)cc1 (stereo not drawn) [compound 3, 1-(4-fluorophenylacetyl)-4-[3-(4-methylbenzyl)-1,2,4-thiadiazol-5-yl]-2-methylpiperazine]",2.2 µM,76%
"CC(C)(C)c1ccc(S(=O)(=O)N2CCN(c3nc(Cc4ccc(Cl)cc4)ns3)CC2)cc1 [compound 69, 1-[4-tert-butylphenylsulfonyl]-4-[3-(4-chlorobenzyl)-1,2,4-thiadiazol-5-yl]piperazine]",–,31%
"COc1cccc(Cc2nsc(N3CCN(C(=O)c4ccc(C)cc4)C(C)C3)n2)c1 (stereo not drawn) [compound 124, 1-(4-methylbenzoyl)-4-[3-(3-methoxybenzyl)-1,2,4-thiadiazol-5-yl]-2-methylpiperazine]",0.14 µM,57%
"CC1CN(c2nc(Cc3ccccc3)ns2)CCN1C(=O)c1cccc(F)c1 (stereo not drawn) [compound 150, 1-(3-fluorobenzoyl)-4-[3-benzyl-1,2,4-thiadiazol-5-yl]-2-methylpiperazine]",1.14 µM,99%
"Cc1cccc(C)c1NC(=O)N1CCN(c2nc(Cc3ccc(F)cc3)ns2)CC1C (stereo not drawn) [compound 19, N-(2,6-dimethylphenyl)-4-[3-(4-fluorobenzyl)-1,2,4-thiadiazol-5-yl]-2-methylpiperazine-1-carboxamide]",0.2 µM,95%
"CCCCCCCCS(=O)(=O)N1CCN(c2nc(Cc3ccc(C)cc3)ns2)CC1 [compound 82, 1-(octylsulfonyl)-4-[3-(4-methylbenzyl)-1,2,4-thiadiazol-5-yl]piperazine]",1.58 µM,50%
"O=C(c1cccc(Cl)c1)N1CCN(c2nc(Cc3ccc(F)cc3)ns2)CC1 [compound 138, 1-(3-chlorobenzoyl)-4-[3-(4-fluorobenzyl)-1,2,4-thiadiazol-5-yl]piperazine]",0.36 µM,81%
"Cc1ccc(Cc2nsc(N3CCN(C(=O)c4ccccc4)C(C)C3)n2)cc1 (stereo not drawn) [compound 169, 1-benzoyl-4-[3-(4-methylbenzyl)-1,2,4-thiadiazol-5-yl]-2-methylpiperazine]",–,91%
"CC1CN(c2nc(Cc3ccc(F)cc3)ns2)CCN1C(=O)c1cccc(C(F)(F)F)c1 (stereo not drawn) [compound 145, 1-(3-trifluoromethylbenzoyl)-4-[3-(4-fluorobenzyl)-1,2,4-thiadiazol-5-yl]-2-methylpiperazine]",0.62 µM,60%
"Cc1ccc(Cc2nsc(N3CCN(C(=O)c4ccc(F)cc4)C(C)C3)n2)cc1 (stereo not drawn) [compound 151, 1-(4-fluorobenzoyl)-4-[3-(4-methylbenzyl)-1,2,4-thiadiazol-5-yl]-2-methylpiperazine]",1.14 µM,73%
"Cc1ccc(Cc2nsc(N3CCN(S(=O)(=O)c4cc(Cl)ccc4Cl)C(C)C3)n2)cc1 (stereo not drawn) [compound 36, 1-[2,5-dichlorophenylsulfonyl]-4-[3-(4-methylbenzyl)-1,2,4-thiadiazol-5-yl]-2-methylpiperazine]",0.1 µM,52%
"CC1CN(c2nc(Cc3ccc(F)cc3)ns2)CCN1C(=O)Nc1cccc2ccccc12 (stereo not drawn) [compound 25, N-1-naphtyl-4-[3-(4-fluorobenzyl)-1,2,4-thiadiazol-5-yl]-2-methylpiperazine-1-carboxamide]",1.69 µM,97%
"COc1cccc(Cc2nsc(N3CCN(C(=O)c4ccc(C(C)(C)C)cc4)C(C)C3)n2)c1 (stereo not drawn) [compound 146, 1-(4-tert-butylbenzoyl)-4-[3-(3-methoxybenzyl)-1,2,4-thiadiazol-5-yl]-2-methylpiperazine]",0.72 µM,94%
"CC1CN(c2nc(Cc3ccc(F)cc3)ns2)CCN1C(=O)c1cccc(Br)c1 (stereo not drawn) [compound 142, 1-(3-bromobenzoyl)-4-[3-(4-fluorobenzyl)-1,2,4-thiadiazol-5-yl]-2-methylpiperazine]",0.5 µM,72%
"Cc1ccc(C(=O)N2CCN(c3nc(Cc4ccc(F)cc4)ns3)CC2)cc1 [compound 141, 1-(4-methylbenzoyl)-4-[3-(4-fluorobenzyl)-1,2,4-thiadiazol-5-yl]piperazine]",0.49 µM,75%
"CC1CN(c2nc(Cc3ccc(F)cc3)ns2)CCN1C(=O)Nc1ccc(F)c(F)c1 (stereo not drawn) [compound 26, N-(3,4-difluorophenyl)-4-[3-(4-fluorobenzyl)-1,2,4-thiadiazol-5-yl]-2-methylpiperazine-1-carboxamide]",–,70%
"CC1CN(c2nc(Cc3ccccc3)ns2)CCN1C(=O)c1ccc(F)cc1 (stereo not drawn) [compound 154, 1-(4-fluorobenzoyl)-4-[3-benzyl-1,2,4-thiadiazol-5-yl]-2-methylpiperazine]",1.58 µM,75%
"CCc1ccc(NC(=O)N2CCN(c3nc(Cc4ccc(F)cc4)ns3)CC2C)cc1 (stereo not drawn) [compound 11, N-(4-ethylphenyl)-4-[3-(4-fluorobenzyl)-1,2,4-thiadiazol-5-yl]-2-methylpiperazine-1-carboxamide]",0.69 µM,73%
"O=C(c1cccc(F)c1)N1CCN(c2nc(Cc3ccc(Cl)cc3)ns2)CC1 [compound 157, 1-(3-fluorobenzoyl)-4-[3-(4-chlorobenzyl)-1,2,4-thiadiazol-5-yl]piperazine]",1.7 µM,70%
"Cc1ccc(S(=O)(=O)N2CCN(c3nc(Cc4ccc(Cl)cc4)ns3)CC2)cc1 [compound 63, 1-[4-methylphenylsulfonyl]-4-[3-(4-chlorobenzyl)-1,2,4-thiadiazol-5-yl]piperazine]",0.0807 µM,83%
"COc1cccc(Cc2nsc(N3CCN(C(=O)c4ccc(C(F)(F)F)cc4)C(C)C3)n2)c1 (stereo not drawn) [compound 168, 1-(4-trifluoromethylbenzoyl)-4-[3-(3-methoxybenzyl)-1,2,4-thiadiazol-5-yl]-2-methylpiperazine]",–,91%
